These results are taken from ChEMBL document CHEMBL1201862, “PubChem BioAssay data set” (2004).

Assay in all cases: NCI anticancer screen, dose series, 48 h
Experiment [1] has as its system NCI-H460.
The test system of experiment [2] is LXFL 529.
Experiment [3] deals with HOP-92.
The test system of experiment [4] is SNB-19.
The subject of experiment [5] is CCRF-CEM.
The subject of experiment [6] is TK-10.
Experiment [7] deals with SNB-75.
The test system of experiment [8] is HCT-15.
Experiment [9] relates to ACHN.
The test system of experiment [10] is NCI-H23.
The test system of experiment [11] is OVCAR-3.
Experiment [12] deals with Malme-3M.
The subject of experiment [13] is 786-0.
The test system of experiment [14] is A498.
Experiment [15] deals with EKVX.
Experiment [16] deals with U-251.
The test system of experiment [17] is SK-OV-3.
Experiment [18] concerns RXF 393.
Experiment [19] deals with MDA-N.
Experiment [20] has as its system T47D.

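1) Cells in 96-well plates. 2) Compound, 48 h, 5 concentrations. 3) Linear interpolation between surrounding doses. 4) Unreached endpoint = highest concentration. GI50 marks 50% less growth.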 Calls of active or inactive are those of the source. Rule as the data show it: active = GI50 up to about 1.1 µM and inactive = higher. Where a SMILES comes first, the peptide text is derived from it. [ ]: non-standard residue; d: D form. The star is where a group is joined. NMeF = CN[CH](Cc1ccccc1)C(=O)O; NMeV = CN[CH](C(=O)O)C(C)C; Boc = CC(C)(C)OC(=O)*; OBn = c1ccc(CO*)cc1

On to `CC(C)OP(=O)(OC(C)C)/C(=N/Nc1ccccc1[N+](=O)[O-])NCCN/C(=N\Nc1ccccc1[N+](=O)[O-])P(=O)(OC(C)C)OC(C)C`, for which the GI50 in experiment [1] is > 10 µM (inactive); in experiment [2] it was 19.5 µM (inactive); in experiment [3], 32 µM (inactive); in [4], 38 µM (inactive); in [5], 22.2 µM (inactive); in experiment [6], 39.1 µM (inactive). The GI50 in experiment [7] is 89.3 µM (inactive); in experiment [8], 30.3 µM; in [9] it was 30.1 µM (inactive); in [10], 14.5 µM (inactive); in experiment [11], 42.7 µM (inactive); in experiment [12] it was 23.1 µM (inactive). The GI50 in experiment [13] was 33 µM (inactive); in experiment [14], 49.5 µM (inactive); in experiment [15] it was 28.9 µM (inactive); in experiment [16] it was 29.6 µM (inactive).

`[O-][n+]1c2c([n+]([O-])c3ccccc31)CCCCCCCCCC2`: the GI50 in experiment [2] is 68.1 µM (inactive); in experiment [3] it was 67.8 µM (inactive); in experiment [4], > 100 µM (inactive); in experiment [5], 85.7 µM (inactive); in [17], > 100 µM (inactive); in experiment [6] it was > 100 µM (inactive). Besides, the GI50 in [7] is > 100 µM (inactive); in experiment [8] it was over 100 µM; in experiment [9] it was > 100 µM (inactive); in [10], > 100 µM (inactive); in [11], > 100 µM (inactive); in [12], > 100 µM (inactive). Also, the GI50 in [13], in experiment [15] and in [16] was > 100 µM (inactive) each time.

Regarding `O=C(O)c1ccc(C2C3C=CC(C3)C2[N+](=O)[O-])cc1` (stereo not drawn), the GI50 in [1], in [2], in experiment [4], in [5], in experiment [17] and in experiment [6] was > 100 µM (inactive) each time. The GI50 in experiment [7] is 91.2 µM (inactive); in [8], over 100 µM; in [10], > 100 µM (inactive); in experiment [11], > 100 µM (inactive); in experiment [18], > 100 µM (inactive); in experiment [12] it was > 100 µM (inactive). Also, the GI50 in experiment [13], in [14], in experiment [15] and in experiment [16] was > 100 µM (inactive) throughout.

Take `C=C(NC(=O)C(=C)NC(=O)c1csc(C2=NC3c4csc(n4)C4NC(=O)c5csc(n5)C(C(C)(O)C(C)O)NC(=O)C5CSC(=N5)/C(=C/C)NC(=O)C(C(C)O)NC(=O)c5csc(n5)C3(CC2)NC(=O)C(C)NC(=O)C(=C)NC(=O)C(C)NC(=O)C(C(C)CC)NC2C=Cc3c(C(C)O)cc(nc3C2O)C(=O)OC4C)n1)C(N)=O` (stereo not drawn): the GI50 in experiment [1] is 1.72 µM (inactive); in experiment [2], 0.449 µM (active); in [3], 1.7 µM (inactive); in [4], 2.69 µM (inactive); in experiment [5], 0.297 µM (active); in experiment [17] it was 15 µM (inactive). The GI50 is 2.75 µM (inactive) in experiment [6]; 1.82 µM (inactive) in [7]; 4.12 µM in [8]; 2.32 µM (inactive) in [9]; 2.79 µM (inactive) in [10]; 1.75 µM (inactive) in experiment [11]. Also, the GI50 in experiment [12] was 1.63 µM (inactive); in [13] it was 1.54 µM (inactive); in experiment [14] it was 1.74 µM (inactive); in [15], 18.2 µM (inactive); in experiment [16], 1.57 µM (inactive).

As to `O=C(N/N=C/c1ccc(Cl)cc1)c1ccccc1Nc1ccccc1C(=O)N/N=C/c1ccc(Cl)cc1`, the GI50 in experiment [1], in experiment [3], in experiment [4], in [5], in [17] and in experiment [6] was > 100 µM (inactive) throughout. The GI50 was > 100 µM (inactive) in experiment [7]; over 100 µM in experiment [8]; > 100 µM (inactive) in [9]; > 100 µM (inactive) in experiment [10]; > 100 µM (inactive) in [11]; > 100 µM (inactive) in experiment [18]. In addition, the GI50 in [12] is 64.4 µM (inactive); in experiment [13], > 100 µM (inactive); in [14], > 100 µM (inactive); in experiment [15], > 100 µM (inactive); in experiment [16], > 100 µM (inactive); in experiment [19] it was > 100 µM (inactive). Moreover, in experiment [20], the GI50 is > 100 µM (inactive).

Consider `CC(C)(CN1CCCCC1)C(=O)CC(SCCN)c1ccc(Cl)cc1` (stereo not drawn), for which the GI50 in experiment [1] is 2.11 µM (inactive); in [2], 1.75 µM (inactive); in experiment [4], 1.78 µM (inactive); in [5] it was 1.55 µM (inactive); in experiment [17], 2.6 µM (inactive); in [6], 2.26 µM (inactive). Moreover, the GI50 was 1.98 µM (inactive) in experiment [7]; 1.63 µM in experiment [8]; 2.78 µM (inactive) in [9]; 1.95 µM (inactive) in experiment [10]; 1.55 µM (inactive) in [11]; 1.81 µM (inactive) in experiment [18]. Besides, the GI50 in experiment [12] is 3.1 µM (inactive); in experiment [13], 1.61 µM (inactive); in experiment [14], 2.32 µM (inactive); in [15] it was 1.74 µM (inactive); in experiment [16] it was 3.12 µM (inactive).

Consider `O=C(CCc1ccccc1)ON1C(=S)NC(c2ccccc2)(c2ccccc2)C1=S`, for which the GI50 in experiment [1] was 31.6 µM (inactive); in [3] it was 65 µM (inactive); in [4], 64.4 µM (inactive); in experiment [5], 21.9 µM (inactive); in experiment [17], 35.6 µM (inactive); in experiment [6] it was 54.5 µM (inactive). Besides, the GI50 is 33 µM (inactive) in experiment [7]; 28.4 µM in [8]; 44.9 µM (inactive) in experiment [9]; 30.3 µM (inactive) in experiment [10]; 29 µM (inactive) in [11]; 36 µM (inactive) in [18]. Moreover, the GI50 in experiment [12] is 20.8 µM (inactive); in experiment [13] it was 19.7 µM (inactive); in experiment [14], > 100 µM (inactive); in experiment [15], 25.4 µM (inactive); in [16] it was 39.4 µM (inactive); in experiment [19], 38.1 µM (inactive). Further, the GI50 in experiment [20] was 41.6 µM (inactive).

For `CC(=O)O[C@]12CCCC1C1(O)C(O)CCCC12` (stereo partly drawn), the GI50 in experiment [1], in experiment [2], in [4], in experiment [5], in experiment [17] and in [6] was > 100 µM (inactive) each time. For the same compound, the GI50 in [7] is > 100 µM (inactive); in experiment [8] it was over 100 µM; in experiment [9], > 100 µM (inactive); in experiment [10], > 100 µM (inactive); in experiment [18] it was > 100 µM (inactive); in [12] it was > 100 µM (inactive). The GI50 in experiment [13], in experiment [15] and in experiment [16] was > 100 µM (inactive) each time.

Regarding `O=C1C2c3[nH]c4ccccc4c3C3CCCCC3C2C(=O)N1c1ccccc1` (stereo not drawn), the GI50 is > 100 µM (inactive) in experiment [1]; > 100 µM (inactive) in [2]; 84.1 µM (inactive) in experiment [4]; 85.1 µM (inactive) in experiment [5]; 20.7 µM (inactive) in [17]; 46.5 µM (inactive) in [6]. Besides, the GI50 is 11.3 µM (inactive) in experiment [7]; over 100 µM in experiment [8]; 99.3 µM (inactive) in experiment [9]; > 100 µM (inactive) in [10]; 73.6 µM (inactive) in [11]; 19.6 µM (inactive) in experiment [18]. Further, the GI50 was > 100 µM (inactive) in [12]; 34.2 µM (inactive) in [13]; 36.2 µM (inactive) in experiment [14]; > 100 µM (inactive) in [15]; > 100 µM (inactive) in [16].

Regarding `CC(C)C(NC(=O)OC(C)(C)C)C(=O)N(C)C(Cc1ccccc1)C(=O)N(C)C(C(=O)N(C)C(C(=O)OCc1ccccc1)C(C)C)C(C)C` (stereo not drawn) (Boc-V[NMeF][NMeV][NMeV]-OBn; configuration not given here), the GI50 in [1] is > 100 µM (inactive); in [2] it was 7.6 µM (inactive); in experiment [4], > 100 µM (inactive); in [5], 48.5 µM (inactive); in experiment [6], > 100 µM (inactive); in experiment [8] it was over 100 µM. Further, the GI50 was 26.4 µM (inactive) in experiment [9]; > 100 µM (inactive) in experiment [10]; > 100 µM (inactive) in experiment [11]; 24.8 µM (inactive) in experiment [12]; > 100 µM (inactive) in experiment [13]; 89.1 µM (inactive) in experiment [15]. Moreover, the GI50 in experiment [16] is > 100 µM (inactive).

In the case of `COc1nc(N(C)C)nc2c1[n+](C)cn2C` [HETEROMINE A], the GI50 in experiment [1] was 44.2 µM (inactive); in experiment [3], > 100 µM (inactive); in [4] it was 25.1 µM (inactive); in experiment [5] it was 30.3 µM (inactive); in experiment [17], > 100 µM (inactive); in experiment [6], > 100 µM (inactive). The GI50 in experiment [7] is > 100 µM (inactive); in experiment [8] it was over 100 µM; in experiment [9], > 100 µM (inactive); in [10], 22.4 µM (inactive); in experiment [11], 47 µM (inactive); in [18] it was 84.1 µM (inactive). In addition, the GI50 is 23.1 µM (inactive) in experiment [12]; 48.3 µM (inactive) in experiment [13]; > 100 µM (inactive) in experiment [14]; > 100 µM (inactive) in [15]; 15.6 µM (inactive) in [16]; 94.6 µM (inactive) in [19]. Besides, the GI50 in experiment [20] is 41.5 µM (inactive).
